Data: US8731655B2, “Compounds containing acyclic N-N bonds for phototherapy” (Mallinckrodt LLC, priority 2009, dated 2014)

How the values were obtained:
[1] = tested on: human myeloid leukemia U937 cell line; assay: Cell viability upon exposure of tumor cells to photosensitizer and light; format: cell-based; conditions: for cell viability result in words: U937 cells exposed to light in presence of photosensitizer, various concentrations and durations; for percent viability: U937 cells
Description: (§1) Abstract: A class of Type 1 photosensitizer containing fragile —N—N— bonds that produce reactive intermediates upon photoexcitation was prepared and tested in vitro. U937 leukemia cells were incubated with the photosensitizer at various concentrations and irradiated with 325-425 nm light at various durations.
(§2) Cell Viability Measurements: A general procedure is carried out for measuring cell viability upon exposure of tumor cells to a photosensitizer having Formula (FX23) or (FX25) and light. The photosensitizer (FX23) has an absorption maxima (λmax) of 385 nm. The cell viability analysis is carried out using human myeloid leukemia U937 cell line by the standard WST-1 assay. In this procedure, U397 Luekemia cells (0.5×10^6) are plated in standard T-25 cell culture flasks, and are exposed to four controls and a series of test conditions corresponding to a range of photosensitizer concentrations.
(§3) The photosensitizers having formula (FX23) and (FX25) are dissolved in DMSO at an initial concentration of about 8 mM and diluted with water to the final desired value such that amount of DMSO exposed to the cells is below 0.5%. The cells are incubated at 37° C. with various concentrations the photosensitizer for about 30 minutes prior to the exposure of light. […] It should be noted that in the present study, the light source is not optimized with respect to power and wavelength. The viability of cells is assessed after 24 hours following light exposure. The light source is a B-100SP High Intensity Lamp from UVP. Once exposure is complete, cells are processed to determine percent viability using Hank's Balanced Salt Solution (HBSS), Trypan blue stain, and a hemacytometer to count live and dead cells. The number of viable cells is determined and percent viability is determined

[2] = as above; format: cell-based, human; conditions: human, U937 myeloid leukemia cells; U937 cells, 10.0 μM photosensitizer, no light exposure; read-out: percent viability
Description: as §1, §2, §3

[3] = Absorption maxima of photosensitizer; format: physicochemical

SMILES | cell viability result in words [1] | percent viability ([1]; 1.25 μM photosensitizer, light exposure 10 minutes) | percent viability ([1]; 1.25 μM photosensitizer, light exposure 20 minutes) | percent viability ([1]; 5.0 μM photosensitizer, light exposure 10 minutes) | percent viability ([1]; 5.0 μM photosensitizer, light exposure 20 minutes) | percent viability ([1]; 10.0 μM photosensitizer, light exposure 10 minutes) | percent viability ([1]; 10.0 μM photosensitizer, light exposure 20 minutes) | viability at 10 μM [2] | IC50 ([1]; Homo sapiens, U-937, 20 min, U937 cells exposed to light and the photosensitizer for 20 minutes, read-out: VC50/20 (concentration at which 50% decrease in cell viability is observed)) | percent viability ([1]; 0.16 μM photosensitizer, light exposure 5 minutes (325-425 nm lamp), viability 24 h after exposure) | percent viability ([1]; 0.16 μM photosensitizer, light exposure 10 minutes) | percent viability ([1]; 0.16 μM photosensitizer, light exposure 20 minutes) | percent viability ([1]; 0.32 μM photosensitizer, light exposure 5 minutes) | percent viability ([1]; 0.32 μM photosensitizer, light exposure 10 minutes) | percent viability ([1]; 0.32 μM photosensitizer, light exposure 20 minutes) | percent viability ([1]; 0.63 μM photosensitizer, light exposure 5 minutes) | percent viability ([1]; 0.63 μM photosensitizer, light exposure 10 minutes) | percent viability ([1]; 0.63 μM photosensitizer, light exposure 20 minutes) | absorption maxima (λmax) [3]
COc1cc(OC)c(/C=N/Nc2c3ccccc3nc3ccccc23)c(OC)c1 [FX25] | concentration-dependent and light exposure time-dependent decrease in cell viability | 100% | 100% | 65% | 10% | 40% | 4% | 60% |  |  |  |  |  |  |  |  |  |  | 
CCOC(=O)NN(C(=O)OCC)c1c2ccccc2cc2ccccc12 [FX23] | concentration-dependent and light exposure time-dependent decrease in cell viability |  |  |  |  |  |  |  | 0.13 ± 0.03 µM | 78% | 40% | 40% | 41% | 5% | 5% | 5% | 5% | 4% | 385 nm
